Source: patent US7598344B2, “Composition, method and use of bi-functional biomaterials” (Board of Regents, The University of Texas System, priority 2002, dated 2009)
Ends that are not written are not given here.

Tests used:
[1] = Biotinylated T59 peptide binding, streptavidin-FITC labeling, on PPyCl; settings: 15 μM peptide, 0.5×0.5 cm^2 substrate
Protocol: (§1) (b) 15 μM peptide bound to 0.5×0.5 cm^2 PPyCl substrate. (c) 15 μM peptide bound to 0.5×0.5 cm^2 PPyPSS substrate. (d) 15 μM peptide bound to 0.5×0.5 cm^2 polystyrene (PS) substrate. All samples were incubated with equal concentrations of streptavidin-FITC. Bar, 10 μm.
(§2) Additional working example data were obtained for the polypyrrole system. A peptide was synthesized whose sequence was determined from the T59 phage (ie., SEQ ID NO. 1).

[2] = serum-containing media, pH 7.4, 15% serum; 3 hr, 7 days, 3 weeks
Protocol: Binding was studied using biotinylated T59 peptide and streptavidin-FITC labeling. (a) control substrate in which no T59 peptide was added, 0.5×0.5 cm2 PPyCl substrates (b) and (c) were incubated with 15 μM peptide, the samples were then placed in serum-containing media (pH 7.4 and 15% serum) for 3 hr (b), 7 days (c), and 3 weeks (d). Bar, 10 μm.
In addition, T59 peptide binding stability in serum-containing medium was also evaluated in working examples using immunofluorescence (note that all previous experiments were done in saline buffer).

[3] = Biotinylated T59 peptide binding, streptavidin-FITC labeling, on polystyrene; settings: 15 μM peptide, 0.5×0.5 cm^2 substrate
Protocol: as §1, §2

THRTSTLDYFVI (also: biotinylated, position not given here) [T59 peptide]
peptide binding to PPyCl [1]: binds to PPyCl | binding stability of PPyCl-bound peptide [2]: a significant fraction of T59 peptides remained bound to PPyCl even after 3 weeks | peptide binding to polystyrene (PS) [3]: not to PPyPSS or to polystyrene (PS)
